Article PMC10046961, “High-Throughput Screening Assay for Detecting Drug-Induced Changes in Synchronized Neuronal Oscillations and Potential Seizure Risk Based on Ca^2+ Fluorescence Measurements in Human Induced Pluripotent Stem Cell (hiPSC)-Derived Neuronal 2D and 3D Cultures” (Cells, 2023)
Like-named read-outs stand apart in the source and are kept apart here. Marks after values point to notes of the source that are not given here.

Assays:
[1] = tested on: hiPSC-derived neurons co-cultured with human primary astrocytes in 2D; assay: Ca2+ transient oscillation assay (FDSS), 2D co-culture; assay type: cell-based; settings: for effect on peak number / Ca2+ neuronal oscillations, in words: 2D format; for activation at 0.37 µM / activation at 1.11 µM / activation at 3.33 µM / activation at 10 µM / activation at 3.7 µM / activation at 11.11 µM / activation at 33.33 µM / activation at 100 µM: Homo sapiens, 1 h, 60 min
Outline: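 hiPSC-derived excitatory neurons (CW50065, Quick-Neuron EX-SeV) co-cultured with human primary astrocytes at 4:1 (10,000:2500 cells per well). Cal-520-loaded cells in HBSS with 2 mM CaCl2 and 10 mM HEPES were pretreated with 0.04% DMSO.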

[2] = tested on: hiPSC-derived neurons co-cultured with human primary astrocytes in 3D; assay: Ca2+ transient oscillation assay (FDSS), 3D spheroids; assay type: cell-based; settings: 60 min
Outline: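 Fura-2 fluorescence was read twice for 20 min each: a baseline 10 min after 0.04% DMSO, and again 60 min after compound addition at nominal final concentration. The 3D co-cultures (1:1 hiPSC neurons from a donor and human astrocytes, 8000 each) matured 5 weeks in BrainPhys medium after a 1-week differentiation.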

[3] = ref PharmaPendium, cited from earlier work
[4] = read-out: Area under the curve - 2D Mean
[5] = read-out: Peak amplitude - 2D Mean
[6] = read-out: Peak-to-peak interval - 2D Mean
[7] = Table 1, peak plasma concentration in men, free therapeutic Cmax
[8] = Table 2, highest plasma concentration in humans after the therapeutic dose

**Q.** What does the source list for `CC[C@@H]1C(=O)OC[C@@H]1Cc1cncn1C` [Pilocarpine]?
**A.** effect on peak number / Ca2+ neuronal oscillations, in words [1]: significantly increased peak number; activation at 0.37 µM [1, 4]: 26.7%; activation at 0.37 µM ([1]; read-out: Peak Number—2D Mean): 11.5%; activation at 0.37 µM [1, 5]: 9.3%; activation at 0.37 µM ([1]; read-out: Peak width - 2D Mean): 19.2%; activation at 0.37 µM [1, 6]: 1.3%; activation at 1.11 µM [1, 4]: 38.8%; activation at 1.11 µM ([1]; read-out: Peak Number—2D Mean): 8.3%; activation at 1.11 µM [1, 5]: 8%; activation at 1.11 µM ([1]; read-out: Peak width - 2D Mean): 35.7%; activation at 1.11 µM [1, 6]: 5.8%; activation at 3.33 µM [1, 4]: 26.7%; activation at 3.33 µM ([1]; read-out: Peak Number—2D Mean): 34.3%; activation at 3.33 µM [1, 5]: 5.8%; activation at 3.33 µM ([1]; read-out: Peak width - 2D Mean): 23.2%; activation at 3.33 µM [1, 6]: -9.2%; activation at 10 µM [1, 4]: 22.8%; activation at 10 µM ([1]; read-out: Peak Number—2D Mean): -19.2%; activation at 10 µM [1, 5]: 3.8%; activation at 10 µM ([1]; read-out: Peak width - 2D Mean): 23%; activation at 10 µM [1, 6]: 29.8%; Area under the curve - 3D Mean ([2]; 0.37 µM): 141.5 % change from baseline; Peak Number—3D Mean ([2]; 0.37 µM): 16.7 % change from baseline; Peak amplitude - 3D Mean ([2]; 0.37 µM): 115.6 % change from baseline; Peak width - 3D Mean ([2]; 0.37 µM): 6.3 % change from baseline; Peak-to-peak interval - 3D Mean ([2]; 0.37 µM): −10.1 % change from baseline; Area under the curve - 3D Mean ([2]; 1.11 µM): 173.5 % change from baseline; Peak Number—3D Mean ([2]; 1.11 µM): 23.9 % change from baseline; Peak amplitude - 3D Mean ([2]; 1.11 µM): 145.8 % change from baseline; Peak width - 3D Mean ([2]; 1.11 µM): 6.7 % change from baseline; Peak-to-peak interval - 3D Mean ([2]; 1.11 µM): −10.0 % change from baseline; Area under the curve - 3D Mean ([2]; 3.33 µM): 168.7 % change from baseline; Peak Number—3D Mean ([2]; 3.33 µM): 12.9 % change from baseline; Peak amplitude - 3D Mean ([2]; 3.33 µM): 135.3 % change from baseline; Peak width - 3D Mean ([2]; 3.33 µM): 10.2 % change from baseline; Peak-to-peak interval - 3D Mean ([2]; 3.33 µM): −3.3 % change from baseline; Area under the curve - 3D Mean ([2]; 10 µM): 145.2 % change from baseline; Peak Number—3D Mean ([2]; 10 µM): 23.1 % change from baseline; Peak amplitude - 3D Mean ([2]; 10 µM): 122.5 % change from baseline; Peak width - 3D Mean ([2]; 10 µM): 7.0 % change from baseline; Peak-to-peak interval - 3D Mean ([2]; 10 µM): −12.6 % change from baseline; Free Cmax [3, 7]: 30 to 550 nM; Free Cmax [3, 8]: 30 to 550 nM

**Q.** With `NCCc1c[nH]c2ccc(O)cc12` [Serotonin] as the compound, how does the “effect on peak number / Ca2+ neuronal oscillations, in words” value [1] read?
**A.** significantly reduced peak number

**Q.** What about the activation at 3.7 µM [1, 4] of the same compound?
**A.** 12.8%

**Q.** What about the activation at 3.7 µM ([1]; read-out: Peak Number—2D Mean) of the same compound?
**A.** -23.4%

**Q.** And the activation at 3.7 µM [1, 5]?
**A.** -4.9%

**Q.** What about the activation at 3.7 µM ([1]; read-out: Peak width - 2D Mean) of the same compound?
**A.** 17.3%

**Q.** And the activation at 3.7 µM [1, 6]?
**A.** 28.4%

**Q.** What about the activation at 11.11 µM [1, 4] of the same compound?
**A.** 11.1%

**Q.** And the activation at 11.11 µM ([1]; read-out: Peak Number—2D Mean)?
**A.** -1.7%

**Q.** What about the activation at 11.11 µM [1, 5] of the same compound?
**A.** -13.7%

**Q.** What about the activation at 11.11 µM ([1]; read-out: Peak width - 2D Mean) of the same compound?
**A.** 18.3%

**Q.** What about the activation at 11.11 µM [1, 6] of the same compound?
**A.** 65.8%

**Q.** And the activation at 33.33 µM [1, 4]?
**A.** -8.9%

**Q.** What about the activation at 33.33 µM ([1]; read-out: Peak Number—2D Mean) of the same compound?
**A.** -43.8%

**Q.** And the activation at 33.33 µM [1, 5]?
**A.** -27.1%

**Q.** What about the activation at 33.33 µM ([1]; read-out: Peak width - 2D Mean) of the same compound?
**A.** -1.4%

**Q.** And the activation at 33.33 µM [1, 6]?
**A.** 36.4%

**Q.** What about the activation at 100 µM [1, 4] of the same compound?
**A.** -2.6%

**Q.** And the activation at 100 µM ([1]; read-out: Peak Number—2D Mean)?
**A.** -45.8%

**Q.** What about the activation at 100 µM [1, 5] of the same compound?
**A.** -16.6%

**Q.** What about the activation at 100 µM ([1]; read-out: Peak width - 2D Mean) of the same compound?
**A.** 11.4%

**Q.** And the activation at 100 µM [1, 6]?
**A.** 55.3%

**Q.** What about the “Area under the curve - 3D Mean” value ([2]; 3.7 µM) of the same compound?
**A.** −19.4 % change from baseline

**Q.** What about the “Peak Number—3D Mean” value ([2]; 3.7 µM) of the same compound?
**A.** −70.7 ** % change from baseline

**Q.** And the “Peak amplitude - 3D Mean” value ([2]; 3.7 µM)?
**A.** −4.3 % change from baseline

**Q.** And the “Peak width - 3D Mean” value ([2]; 3.7 µM)?
**A.** −54.0 % change from baseline

**Q.** And the “Peak-to-peak interval - 3D Mean” value ([2]; 3.7 µM)?
**A.** −58.0 % change from baseline

**Q.** What about the “Area under the curve - 3D Mean” value ([2]; 11.11 µM) of the same compound?
**A.** 19.8 % change from baseline

**Q.** And the “Peak Number—3D Mean” value ([2]; 11.11 µM)?
**A.** −69.1 ** % change from baseline

**Q.** What about the “Peak amplitude - 3D Mean” value ([2]; 11.11 µM) of the same compound?
**A.** 33.7 % change from baseline

**Q.** And the “Peak width - 3D Mean” value ([2]; 11.11 µM)?
**A.** −31.8 % change from baseline

**Q.** What about the “Peak-to-peak interval - 3D Mean” value ([2]; 11.11 µM) of the same compound?
**A.** −37.9 % change from baseline

**Q.** What about the “Area under the curve - 3D Mean” value ([2]; 33.33 µM) of the same compound?
**A.** −21.3 % change from baseline

**Q.** What about the “Peak Number—3D Mean” value ([2]; 33.33 µM) of the same compound?
**A.** −82.1 ** % change from baseline

**Q.** What about the “Peak amplitude - 3D Mean” value ([2]; 33.33 µM) of the same compound?
**A.** −3.1 % change from baseline

**Q.** And the “Peak width - 3D Mean” value ([2]; 33.33 µM)?
**A.** −52.3 % change from baseline

**Q.** What about the “Peak-to-peak interval - 3D Mean” value ([2]; 33.33 µM) of the same compound?
**A.** 29.2 % change from baseline

**Q.** And the “Area under the curve - 3D Mean” value ([2]; 100 µM)?
**A.** −21.1 % change from baseline

**Q.** And the “Peak Number—3D Mean” value ([2]; 100 µM)?
**A.** −80.3 ** % change from baseline

**Q.** And the “Peak amplitude - 3D Mean” value ([2]; 100 µM)?
**A.** −10.3 % change from baseline

**Q.** And the “Peak width - 3D Mean” value ([2]; 100 µM)?
**A.** −55.4 % change from baseline

**Q.** What about the “Peak-to-peak interval - 3D Mean” value ([2]; 100 µM) of the same compound?
**A.** −82.0 % change from baseline

**Q.** And the “Free Cmax” value [3, 7]?
**A.** 1000 to 2000 nM

**Q.** What about the “Free Cmax” value [3, 8] of the same compound?
**A.** 1000 to 2000 nM
